# Measured values: patent publication US20230331655A1, “HYDROXYN[…] AND METHODS OF USE THEREOF” (UNIVERSITY OF MARYLAND, BALTIMORE, priority 2020, published 2023)
# “Also recorded” adds a separate entry of the source.
# Columns and labels:
# [1] = oral bioavailability in mice; settings: mouse, in vivo
# mice [2] = assay: antidepressant-relevant behavioral actions after oral administration; assay type: in vivo, mouse
# mice [3] = assay: overt adverse effects after oral administration; assay type: in vivo, mouse
# Male C57BL/6J mice [4] = assay: naloxone-precipitated morphine withdrawal symptoms; assay type: in vivo, mouse; settings: 10 mg/kg i.p. 10 min before naloxone 1 mg/kg
# From the text: (§1) Animals: Male C57BL/6J mice (8 weeks old, Jackson laboratories) were kept in a temperature and humidity-controlled environment and maintained in a 12:12 hr light/dark cycle (lights on at 7:00 AM). Mice were singly-housed for all the studies due to increased aggression following opioid administration and were randomly assigned to treatment groups.
# Drugs: (2R,6R)-HNK hydrochloride was synthesized and characterized. Absolute and relative stereochemistry for (2R,6R)-HNK was confirmed by small molecule x-ray crystallography. For the intraperitoneal injections, drugs were dissolved in 0.9% saline and given in a volume of 5 ml/kg.
# Precipitated morphine withdrawal symptoms: Mice were given a single injection of saline or morphine (10 mg/kg) in their home cages for 4 days. On Day 5, 1 hr and 50 min after their last saline or morphine injection, mice were given a single injection of saline or (2R,6R)-HNK (10 mg/kg) and 10 min later were given another injection of either saline or the opioid receptor antagonist naloxone (1 mg/kg, i.p.). The mice were immediately placed in plexiglass cylinders and their behaviors were monitored and live-scored for 25 min by an experimenter blind to any treatment conditions. Behaviors that were scored included: number of jumps (escape behavior), number of paw tremors, and occurrence (1 point) or not in each 5-min interval for the following symptoms: stereotypic sniffing, stereotypic rearing, eye ptosis, piloerection, head nodding and swallowing (FIGS. 9A-9H). An average score for each animal was given after analyzing all the withdrawal symptoms (FIG. 10).
# Male C57BL/6J mice [5] = assay: sub-threshold social defeat stress in mice previously exposed to morphine; assay type: in vivo, mouse
# From the text: as §1
# Drugs: (2R,6R)-HNK hydrochloride was synthesized and characterized. Absolute and relative stereochemistry for (2R,6R)-HNK was confirmed by small molecule x-ray crystallography. For the intraperitoneal injections, drugs were dissolved in 0.9% saline and given in a volume of 5 ml/kg. […]
# Social interaction test: Following the sub-threshold social defeat stress, on day 16, test mice were screened for susceptibility in a social interaction/avoidance choice test. […] The time spent interacting (nose within close proximity of the cage) with the “stranger” mouse versus the empty cage was analyzed using TopScan video tracking software (CleverSys, Reston, Virginia). % Social Interaction was calculated as the time spent interacting with stranger divided by the total time interacting with the end-chamber cages×100.
# Sucrose preference: Following the social interaction test, mice were assessed for sucrose preference in their home cages. […]
# [6] = 10 mg/kg, i.p.; cited from earlier work
structure (smiles),measurement,setting,value
"N[C@@]1(c2ccccc2Cl)CCC[C@@H](O)C1=O [(2R,6R)-HNK, (2R,6R)-hydroxynorketamine]",bioavailability,[1],~50%
same,oral doses exerting antidepressant-relevant behavioral actions,mice [2],15 to 50 mg/kg
same,fold higher than doses required for antidepressant-relevant effects (dose without overt adverse effects),mice [3],at least 9 fold
same,oral doses without overt adverse effects,mice [3],up to 450 mg/kg
same,average precipitated withdrawal symptoms of morphine,Male C57BL/6J mice [4],overall reduction
same,escape-related jumping behavior,Male C57BL/6J mice [4],increasing the escape-related jumping behavior
same,paw tremors,Male C57BL/6J mice [4],decreased paw tremors
same,somatic symptoms following naloxone-precipitated morphine withdrawal,Male C57BL/6J mice [4],decreases somatic symptoms
same,"stress susceptibility phenotypes / emotional deficits (social interaction, sucrose preference, female urine sniffing, untorn nestlet weight)","Male C57BL/6J mice [5]; 10 mg/kg i.p. 2 hours after sub-threshold social defeat, mice previously exposed to morphine 10 mg/kg",reverses emotional deficits; also recorded: reversed stress susceptibility phenotypes
same,reinstatement of maladaptive behaviors after brief re-exposure to stress,"Male C57BL/6J mice [5]; 10 mg/kg i.p. after the first defeats, 1 min re-exposure",prevents reinstatement
same,estimated concentration in brain tissue,[6],< 20 µmol/kg
same,estimated concentration in the extracellular hippocampal space,[6],< 10 µM
